# Data: patent US20160213742A1, “COMPOSITIONS AND METHODS FOR THE TREATMENT OF FUNGAL INFECTIONS” (priority 2013, published 2016)
# Where two headings read alike, the source gives them in different places.
# What was measured:
# Assay type in all cases: cell-based
# C. albicans ATCC 90028 [1] = experiment: microbe, parasite or virus in culture; conditions: C. albicans ATCC 90028; RPMI pH 7.0, 35° C., 24-48 hr
# Summary of the method: (§1)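 Broth microdilution in CLSI-prepared RPMI, pH 7.0, with serial 2-fold drug dilutions; final DMSO 1.25% for investigational agents. Candida inoculum from 0.5 McFarland diluted 1:100; Aspergillus at ~0.2-2.5×10^4 CFU/mL. Incubated 35° C. ~24-48 hr; MIC at visible growth inhibition, MEC at compact rounded hyphal form.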
# C. glabrata ATCC 90030 [2] = experiment: microbe, parasite or virus in culture; conditions: C. glabrata ATCC 90030; RPMI pH 7.0, 35° C., 24-48 hr
# Summary of the method: as §1
# C. krusei ATCC 14243 [3] = experiment: microbe, parasite or virus in culture; conditions: C. krusei ATCC 14243; RPMI pH 7.0, 35° C., 24-48 hr
# Summary of the method: as §1
# [4] = system: C. parapsilosis ATCC 22019; experiment: microbe, parasite or virus in culture; conditions: C. parapsilosis ATCC 22019; RPMI pH 7.0, 35° C., 24-48 hr
# Summary of the method: as §1
# A. flavus MX 5948 = experiment: MEC assay (Example 31); conditions: RPMI pH 7.0, 35° C., 24-48 hr
# Summary of the method: as §1
# A. fumigatus ATCC 13073 [5] = experiment: MEC assay (Example 31); conditions: RPMI pH 7.0, 35° C., 24-48 hr
# Summary of the method: as §1
# A. fumigatus MX 5944 = experiment: MEC assay (Example 31); conditions: RPMI pH 7.0, 35° C., 24-48 hr
# Summary of the method: as §1
# A. fumigatus MYA-3626 [6] = experiment: MEC assay (Example 31); conditions: RPMI pH 7.0, 35° C., 24-48 hr
# Summary of the method: as §1
# A. fumigatus MYA-4609 [7] = experiment: MEC assay (Example 31); conditions: RPMI pH 7.0, 35° C., 24-48 hr
# Summary of the method: as §1
# C. albicans ATCC 90028 [8] = system: C. albicans ATCC 90028
# Method: (§2) MIC and MEC assays were run as described in Example 31 with the following exceptions. Starting solutions of all antifungal agents were prepared in 100% DMSO. Stock concentrations were made at 50× the highest final assay concentration and serially diluted 2-fold, 16 times in a 96-well PCR plate (VWR 83007-374). Candida and Aspergillus suspensions from Sabouraud dextrose agar plate cultures were prepared in 0.85% saline at 0.5 McFarland standard (˜0.1 OD530 nm). Candida suspensions were diluted 1:500 in RPMI (MP Biomedicals, cat no. 1060124; buffered with MOPS and adjusted with NaOH to pH 7.0) to a concentration of ˜0.5-2.5×10^3 CFU/mL and Aspergillus suspensions were diluted 1:50 in RPMI to 0.4-5×10^4 CFU/mL final concentration. 98 μL of each cell suspension in RPMI were added to test wells in a 96-well assay plate (Costar cat. no. 3370). A Beckman Multimek 96 liquid handling robot was used to dispense 2 μL of each 50× stock compound into the plate containing 98 μL of each strain in RPMI (2% final solvent concentration). Plates were shaken then incubated at 35° C. for 24-48 h prior to reading. MIC values were read visually at 50% growth inhibition for echinocandins (24 h) and at 100% growth inhibition for amphotericin B (48 h). MEC values (24 h) were read with the aid of a microscope at the lowest echinocandin concentration where rounded/compact hyphal morphology was observed.
# C. glabrata ATCC 90030 [9] = system: C. glabrata ATCC 90030
# Method: as §2
# C. krusei ATCC 14243 [10] = system: C. krusei ATCC 14243
# Method: as §2
# [11] = system: C. parapsilosis ATCC 22019
# Method: as §2
# C. tropicalis ATCC 750 = system: C. tropicalis ATCC 750
# Method: as §2
# A. flavus ATCC MYA-3631 = experiment: MEC assay (Example 32); conditions: MEC values (24 h), rounded/compact hyphal morphology
# Method: as §2
# A. fumigatus ATCC 13073 [12] = experiment: MEC assay (Example 32); conditions: MEC values (24 h), rounded/compact hyphal morphology
# Method: as §2
# A. fumigatus MYA-3626 [13] = experiment: MEC assay (Example 32); conditions: MEC values (24 h), rounded/compact hyphal morphology
# Method: as §2
# A. fumigatus MYA-4609 [14] = experiment: MEC assay (Example 32); conditions: MEC values (24 h), rounded/compact hyphal morphology
# Method: as §2
# A. niger ATCC 16404 = experiment: MEC assay (Example 32); conditions: MEC values (24 h), rounded/compact hyphal morphology
# Method: as §2
# [15] = system: Neutrophils purified from human peripheral blood; experiment: Human Neutrophil Transwell Migration Assay; conditions: 37° C., 45 minutes, % of the maximum migration possible
# Summary of the method: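 Neutrophils (~50,000–100,000) were placed above 5-micron transwell inserts with test compound in the lower chamber and allowed to migrate 45 min at 37° C. Migrated cells were quantified by ATP luminescence; medium-only background was subtracted and values expressed as % of cells added directly to the bottom well.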
compound,measurement,setting,value
"C[C@@H]1[C@H](O)[C@@H](C)/C=C/C=C/C=C/C=C/C=C/C=C/C=C/[C@H](O[C@@H]2O[C@H](C)[C@@H](O)[C@H](N)[C@@H]2O)C[C@@H]2O[C@](O)(C[C@@H](O)C[C@@H](O)[C@H](O)CC[C@@H](O)C[C@@H](O)CC(=O)O[C@H]1C)C[C@H](O)[C@H]2C(=O)O [amphotericin B, reference compound]",MIC,C. albicans ATCC 90028 [1],0.12 to 1 µg/mL
same,MIC,C. glabrata ATCC 90030 [2],0.25 to 1 µg/mL
same,MIC,C. krusei ATCC 14243 [3],0.25-2 ^ μg/mL
same,MIC,[4],0.5 to 2 µg/mL
same,MEC,A. flavus MX 5948,0.5 to 2 µg/mL
same,MEC,A. fumigatus ATCC 13073 [5],0.5 to 4 µg/mL
same,MEC,A. fumigatus MX 5944,0.5-2^ μg/mL
same,MEC,A. fumigatus MYA-3626 [6],0.5 to 2 µg/mL
same,MEC,A. fumigatus MYA-4609 [7],0.5 to 4 µg/mL
same,MIC,"C. albicans ATCC 90028 [8]; C. albicans ATCC 90028, read at 50% growth inhibition for echinocandins (24 h), 100% for amphotericin B (48 h)",0.5 µg/mL
same,MIC,"C. glabrata ATCC 90030 [9]; C. glabrata ATCC 90030, read at 50% growth inhibition for echinocandins (24 h), 100% for amphotericin B (48 h)",1 µg/mL
same,MIC,"C. krusei ATCC 14243 [10]; C. krusei ATCC 14243, read at 50% growth inhibition for echinocandins (24 h), 100% for amphotericin B (48 h)",1 µg/mL
same,MIC,"[11]; C. parapsilosis ATCC 22019, read at 50% growth inhibition for echinocandins (24 h), 100% for amphotericin B (48 h)",1 µg/mL
same,MIC,"C. tropicalis ATCC 750; C. tropicalis ATCC 750, read at 50% growth inhibition for echinocandins (24 h), 100% for amphotericin B (48 h)",1 µg/mL
same,MEC,A. flavus ATCC MYA-3631,1 µg/mL
same,MEC,A. fumigatus ATCC 13073 [12],0.25 µg/mL
same,MEC,A. fumigatus MYA-3626 [13],0.25 µg/mL
same,MEC,A. fumigatus MYA-4609 [14],1 µg/mL
same,MEC,A. niger ATCC 16404,0.5 µg/mL
CC[C@H](C)C[C@H](C)CCCCCCCCC(=O)N[C@H]1C[C@@H](O)[C@@H](OCCN)NC(=O)[C@@H]2[C@@H](O)CCN2C(=O)[C@H]([C@H](O)CCNC(=O)[C@H](Cc2ccccc2)NC(=O)[C@H](CC(C)C)NC(=O)[C@H](CC[S+](C)[O-])NC=O)NC(=O)[C@H]([C@H](O)[C@@H](O)c2ccc(O)cc2)NC(=O)[C@@H]2C[C@@H](O)CN2C(=O)[C@H]([C@@H](C)O)NC1=O (stereo partly shown) [Compound 30],MIC,"C. albicans ATCC 90028 [8]; ATCC 90028, 24 h",2 µg/mL
same,MIC,"C. glabrata ATCC 90030 [9]; ATCC 90030, 24 h",8 µg/mL
same,MIC,"C. krusei ATCC 14243 [10]; ATCC 14243, 24 h",32 µg/mL
same,MIC,"[11]; ATCC 22019, 24 h",32 µg/mL
same,MIC,"C. tropicalis ATCC 750; ATCC 750, 24 h",2 µg/mL
same,MEC,A. flavus ATCC MYA-3631,0.5 µg/mL
same,MEC,A. fumigatus ATCC 13073 [12],0.25 µg/mL
same,MEC,A. fumigatus MYA-3626 [13],1 µg/mL
same,MEC,A. fumigatus MYA-4609 [14],0.5 µg/mL
same,MEC,A. niger ATCC 16404,0.5 µg/mL
same,% Neutrophil Migration,[15]; conc 0.001 μg/mL,105.2%
same,% Neutrophil Migration,[15]; conc 0.01 μg/mL,133.6%
same,% Neutrophil Migration,[15]; conc 0.1 μg/mL,234.3%
same,% Neutrophil Migration,[15]; conc 1 μg/mL,48.2%
same,% Neutrophil Migration,[15]; conc 10 μg/mL,19.7%
